The first experiment has as its system Human immunodeficiency virus 1. Briefly: Antiviral activity against HIV1 infected in human MT4 cells assessed as protection against virus-induced cytopathic effect. It is filed as functional, organism-based. The note with it: Human immunodeficiency virus 1, MT4. For orientation: Protection from cytopathic effect is a common read-out in antiviral testing.
Usually IC50 stands for the concentration that inhibits the measured activity by half. With `CCCN1Cc2cccc3[nH]c(=O)n(c23)C[C@@H]1C`, the IC50 is 89.1 µM. On the same count and under the same terms, under `C[C@H]1Cn2c(=O)[nH]c3cccc(c32)CN1CC1CC1` stands 43.7 µM; under `C/C=C/CN1Cc2cccc3[nH]c(=O)n(c23)C[C@@H]1C`, 57.5 µM; under `C=C(C)CN1Cc2cccc3[nH]c(=O)n(c23)C[C@@H]1C`, 46.8 µM.

For the compound `C#CCN1Cc2cccc3[nH]c(=O)n(c23)C[C@@H]1C`, the IC50 is 575 µM.

On to `C/C=C\CN1Cc2cccc3[nH]c(=O)n(c23)C[C@@H]1C`, for which the IC50 is 34.7 µM.

On to `C=C(CC)CN1Cc2cccc3[nH]c(=O)n(c23)C[C@@H]1C`, for which the IC50 was 37.2 µM. The same measure, in the same setting: in the case of `C/C=C(\C)CN1Cc2cccc3[nH]c(=O)n(c23)C[C@@H]1C` it was 28.8 µM.

`C[C@H]1Cn2c(=O)[nH]c3cccc(c32)CN1C/C=C\c1ccccc1`: the IC50 is 123 µM. Still for that read-out and setting: under `CC1c2cccc3[nH]c(=S)n(c23)[C@@H](C)[C@H](C)N1CC1CC1` (stereo not given in full) stands 13.5 µM. For `C=CC(=C)CN1Cc2cccc3[nH]c(=O)n(c23)C[C@@H]1C`, the IC50 was 70.8 µM. In the case of `C=C(Br)CN1Cc2cccc3[nH]c(=O)n(c23)C[C@@H]1C`, the IC50 is 61.7 µM. `COC(=O)CN1Cc2cccc3[nH]c(=O)n(c23)C[C@@H]1C`: the IC50 was 851 µM. The same measure, in the same setting: under `C[C@H]1Cn2c(=O)[nH]c3cccc(c32)CN1Cc1ccco1` stands 107 µM; under `C=CCCN1Cc2cccc3[nH]c(=O)n(c23)C[C@@H]1C`, 50.1 µM. The same measure, in the same setting: under `C[C@@H]1CN(CC2CC2)Cc2cc(Cl)cc3[nH]c(=S)n1c23` stands 2.19 µM; under `CC(C)=CCN1Cc2cccc3nc(O)n(c23)C[C@@H]1C`, 12.6 µM; under `CC(C)=CCN1Cc2cc(Cl)c(Cl)c3nc(S)n(c23)C[C@@H]1C`, 0.0251 µM.

In the case of `CC(C)=CCN1[C@H](C)Cn2c(=S)[nH]c3cccc(c32)[C@@H]1C`, the IC50 was 1.15 µM. For `C=CCN1Cc2cccc3[nH]c(=O)n(c23)C[C@@H]1C`, the IC50 is 70.8 µM. On to `CCCCN1Cc2cccc3[nH]c(=O)n(c23)C[C@@H]1C`, for which the IC50 is 100 µM.

As to `C=C(C)CN1Cc2cccc3[nH]c(=O)n(c23)CC1C` (stereo not given), the IC50 is 34.7 µM. On to `CCCN1Cc2cccc3[nH]c(=O)n(c23)CC1C` (stereo not given), for which the IC50 is 60.3 µM.

As for `CCCN1Cc2cccc3[nH]c(=S)n(c23)CC1C` (stereo not given), the IC50 is 1.66 µM. Consider `C=C(C)CN1Cc2cccc3[nH]c(=O)n(c23)C(C)C1` (stereo not given), for which the IC50 is 31.6 µM.

For `CC(C)=CCN1C(C)c2cccc3[nH]c(=O)n(c23)[C@@H](C)[C@H]1C` (relative stereo), the IC50 is 56.2 µM. `CC(C)=CCN1C(C)c2cccc3[nH]c(=S)n(c23)[C@@H](C)[C@H]1C` (relative stereo): the IC50 was 2.24 µM.

On to `CC(C)=CCN1[C@@H](C)Cn2c(=S)[nH]c3cccc(c32)[C@@H]1C` (relative stereo), for which the half-inhibitory concentration (IC50) is 0.0417 µM.

The experiment is the same for the next values; noted with them: mt4.
As a reminder, the pIC50 is the negative decadic logarithm of the IC50, by convention in mol/L. Regarding `CC(C)=CCN1Cc2cccc3[nH]c(=S)n(c23)C[C@@H]1C` (stereo in doubt; 1), the pIC50 was determined as 7.36. Regarding `CC(C)=CCN1Cc2cccc3[nH]c(=S)n(c23)C[C@@H]1C` (stereo in doubt; 81), the pIC50 stood at 7.01.

The record behind these values is ChEMBL document CHEMBL1157041, “Support vector machines: development of QSAR models for predicting anti-HIV-1 activity of TIBO derivatives” (Eur J Med Chem, 2010).
